Patent publication US20050020616A1, “Aryl fused azapolycyclic compounds” (Pfizer Inc, priority 2003, published 2005)
Where a name gives a salt, the structure may show the parent alone.

melting point: 252 °C
Structure (SMILES): O=[N+]([O-])c1ccc2c(c1)C1CCC2CNC1 (stereo not shown) (as salt: hydrochloride)
